Test results from patent publication US11040038B2, “Methods for treating diseases associated with abnormal ACVR1 expression and ACVR1 inhibitors for use in the same” (Sumitomo Dainippon Pharma Oncology, Inc., priority 2018, dated 2021).
Values after ≈ are worked out from the molar mass of the structure shown. Like-named read-outs stand apart in the source and are kept apart here. Values belong to the compound of their own block, whether it stands above or below them.

What was measured:
Type in all cases: physicochemical
[1] = Kinetic solubility in pH 2, 5 and 7 buffers at RT; conditions: for S: solubility / pH: final pH of supernatant / FC: solid form change / solubility at 1 h / solubility at 2 h / solubility at 4 h / solubility at 24 h: RT; for solubility at 1 h / solubility at 2 h / solubility at 4 h / solubility at 24 h: 19 °C, aqueous buffer, thermodynamic from solid, read-out: S: solubility
Protocol: Kinetic solubility of two salt leads was measured in pH 2, 5, and 7 buffers to evaluate their solubility and disproportionation risk, using freebase Form A (812608-05-A) as control. […] After centrifugation, supernatants were collected for HPLC and pH tests, and wet cakes were collected for XRPD characterization. If clear solutions were obtained, accurate concentration was measured for the solutions.
Agilent 1100/1260 HPLC was utilized and detailed chromatographic conditions for purity and solubility measurement are listed in Table 39.

[2] = Hygroscopicity by DVS at 25° C.; conditions: for Hygroscopicity (%), water uptake: 25° C./80% RH
Protocol: A DVS isotherm plot was collected at 25° C. to investigate the solid form stability as a function of humidity. All the anhydrous samples were pre-equilibrated at 0% RH to remove the unbounded solvent or water before getting started. As evidenced by the water uptake of […] up to 80% RH, freebase Form A and both two salt forms were slightly hygroscopic, and no solid form change was observed after DVS evaluation (FIGS. 20A, 20B, 20C, 20D, 20E, and 20F).
Dynamic Vapor Sorption (DVS) was measured via a SMS (Surface Measurement Systems) DVS Intrinsic. The relative humidity at 25° C. were calibrated against deliquescence point of LiCl, Mg(NO3)2 and KCl.

[3] = Solid-state stability under 40° C./75% RH for one week; conditions: for Solid-state Stability: 40° C./75% RH for at least one week; for FC: form change based on XRPD results / Purity vs. Initial (%): 40° C./75% RH; for FC: form change based on XRPD results / Purity vs. Initial (%) / Purity (area %): one week; for Purity (area %): after 40° C./75% RH, HPLC
Protocol: Solid-state stability of freebase Form A, HCl salt Form A and fumarate Form A was evaluated under 40° C./75% RH for one week. Stability samples were characterized by XRPD to check any solid form change and by HPLC to check purity change.

Estimated pKa values = conditions: method not stated
[4] = Approximate solubility of freebase in 12 solvents at RT; conditions: thermodynamic from solid
Protocol: Approximate solubility of freebase Form A (812608-05-A) was measured in 12 solvents at RT. For each experiment, approximately 2 mg of sample was added into a 3 mL glass vial. Solvents in Table 35 were then added step wise (50, 50, 200, 200, 500 μL) into the vials until the solids were dissolved visually or a total volume of 1 mL was reached. Solubility results summarized in Table 35 were used to guide the solvent selection in salt screening design.

- S: solubility ([1]; pH 2 buffer, 1 hr): 13400 µg/mL
- pH: final pH of supernatant ([1]; pH 2 buffer, 1 hr): 5.5
- S: solubility ([1]; pH 2 buffer, 2 hrs): 13300 µg/mL
- pH: final pH of supernatant ([1]; pH 2 buffer, 2 hrs): 5.6
- S: solubility ([1]; pH 2 buffer, 4 hrs): 13200 µg/mL
- pH: final pH of supernatant ([1]; pH 2 buffer, 4 hrs): 5.6
- S: solubility ([1]; pH 2 buffer, 24 hrs): 11800 µg/mL
- pH: final pH of supernatant ([1]; pH 2 buffer, 24 hrs): 5.6
- S: solubility ([1]; pH 5 buffer, 1 hr): 13200 µg/mL
- pH: final pH of supernatant ([1]; pH 5 buffer, 1 hr): 5.7
- S: solubility ([1]; pH 5 buffer, 2 hrs): 13000 µg/mL
- pH: final pH of supernatant ([1]; pH 5 buffer, 2 hrs): 5.7
- S: solubility ([1]; pH 5 buffer, 4 hrs): 13000 µg/mL
- pH: final pH of supernatant ([1]; pH 5 buffer, 4 hrs): 5.7
- S: solubility ([1]; pH 5 buffer, 24 hrs): 11600 µg/mL
- pH: final pH of supernatant ([1]; pH 5 buffer, 24 hrs): 5.7
- FC: solid form change ([1]; pH 7 buffer, 1 hr): Yes
- S: solubility ([1]; pH 7 buffer, 1 hr): 13500 µg/mL
- pH: final pH of supernatant ([1]; pH 7 buffer, 1 hr): 7.0
- FC: solid form change ([1]; pH 7 buffer, 2 hrs): Yes
- S: solubility ([1]; pH 7 buffer, 2 hrs): 9600 µg/mL
- pH: final pH of supernatant ([1]; pH 7 buffer, 2 hrs): 6.9
- FC: solid form change ([1]; pH 7 buffer, 4 hrs): Yes
- S: solubility ([1]; pH 7 buffer, 4 hrs): 9400 µg/mL
- pH: final pH of supernatant ([1]; pH 7 buffer, 4 hrs): 6.9
- FC: solid form change ([1]; pH 7 buffer, 24 hrs): Yes
- S: solubility ([1]; pH 7 buffer, 24 hrs): 210 µg/mL
- pH: final pH of supernatant ([1]; pH 7 buffer, 24 hrs): 6.4
- Water uptake ([2]; 25° C., 95% RH): 1.40%
- Hygroscopicity (%), water uptake [2]: (0.86) %
- FC: form change based on XRPD results [3]: No
- Purity vs. Initial (%) [3]: 99.9%
- Purity (area %) [3]: 99.54 area %
Compound: COc1cc(Nc2nccc(Nc3cccnc3-c3ccccn3)n2)ccc1N1CCN(C)CC1.Cl [HCl Salt Form A, N^4-(2,2′-bipyridin-3-yl)-N^2-(3-methoxy-4-(4-methylpiperazin-1-yl)phenyl)pyrimidine-2,4-diamine anhydrous hydrochloric acid salt]
- Kinetic Solubility compared with freebase Form A ([1]; pH 2, 5 and 7 buffers): showed increased solubility in pH 2, 5 and 7 buffers;
- Solid-state Stability [3]: Good physicochemical properties under 40° C./75%

- solubility at 1 h ([1]; pH 2 buffer, 1 hr): 4300 µg/mL (≈ 9.18 mM)
- solubility at 2 h ([1]; pH 2 buffer, 2 hrs): 4100 µg/mL (≈ 8.75 mM)
- solubility at 4 h ([1]; pH 2 buffer, 4 hrs): 4100 µg/mL (≈ 8.75 mM)
- solubility at 24 h ([1]; pH 2 buffer, 24 hrs): 3200 µg/mL (≈ 6.83 mM)
- solubility at 1 h ([1]; pH 5 buffer, 1 hr): 7400 µg/mL (≈ 15.8 mM)
- solubility at 2 h ([1]; pH 5 buffer, 2 hrs): 7200 µg/mL (≈ 15.4 mM)
- solubility at 4 h ([1]; pH 5 buffer, 4 hrs): 6300 µg/mL (≈ 13.4 mM)
- solubility at 24 h ([1]; pH 5 buffer, 24 hrs): 6600 µg/mL (≈ 14.1 mM)
- solubility at 1 h ([1]; pH 7 buffer, 1 hr): 0.4 µg/mL (≈ 0.000854 mM)
- solubility at 2 h ([1]; pH 7 buffer, 2 hrs): 1 µg/mL (≈ 0.00213 mM)
- solubility at 4 h ([1]; pH 7 buffer, 4 hrs): 0.4 µg/mL (≈ 0.000854 mM)
- solubility at 24 h ([1]; pH 7 buffer, 24 hrs): 8.9 µg/mL (≈ 0.019 mM)
- FC: solid form change ([1]; pH 2 buffer, 1 hr): No
- pH: final pH of supernatant ([1]; pH 2 buffer, 1 hr): 6.2
- FC: solid form change ([1]; pH 2 buffer, 2 hrs): No
- pH: final pH of supernatant ([1]; pH 2 buffer, 2 hrs): 6.2
- FC: solid form change ([1]; pH 2 buffer, 4 hrs): No
- pH: final pH of supernatant ([1]; pH 2 buffer, 4 hrs): 6.2
- FC: solid form change ([1]; pH 2 buffer, 24 hrs): No
- pH: final pH of supernatant ([1]; pH 2 buffer, 24 hrs): 6.1
- FC: solid form change ([1]; pH 5 buffer, 1 hr): No*
- pH: final pH of supernatant ([1]; pH 5 buffer, 1 hr): 6.2
- FC: solid form change ([1]; pH 5 buffer, 2 hrs): No*
- pH: final pH of supernatant ([1]; pH 5 buffer, 2 hrs): 6.3
- FC: solid form change ([1]; pH 5 buffer, 4 hrs): No
- pH: final pH of supernatant ([1]; pH 5 buffer, 4 hrs): 6.4
- FC: solid form change ([1]; pH 5 buffer, 24 hrs): No
- pH: final pH of supernatant ([1]; pH 5 buffer, 24 hrs): 6.4
- FC: solid form change ([1]; pH 7 buffer, 1 hr): No
- pH: final pH of supernatant ([1]; pH 7 buffer, 1 hr): 7.0
- FC: solid form change ([1]; pH 7 buffer, 2 hrs): No
- pH: final pH of supernatant ([1]; pH 7 buffer, 2 hrs): 6.9
- FC: solid form change ([1]; pH 7 buffer, 4 hrs): No
- pH: final pH of supernatant ([1]; pH 7 buffer, 4 hrs): 7.0
- FC: solid form change ([1]; pH 7 buffer, 24 hrs): No
- pH: final pH of supernatant ([1]; pH 7 buffer, 24 hrs): 7.0
- Hygroscopicity (%), water uptake [2]: (0.60) %
- pKa (Estimated pKa values): 7.5
- solubility ([4]; organic solvent or mixture, ACN): < 2000 µg/mL
- solubility ([4]; organic solvent or mixture, Acetone): < 2400 µg/mL
- solubility ([4]; organic solvent or mixture, EtOAc): < 2500 µg/mL
- solubility ([4]; organic solvent or mixture, EtOH): 2100 to 4200 µg/mL (≈ 4.48 to 8.96 mM)
- solubility ([4]; organic solvent or mixture, IPA): < 2400 µg/mL
- solubility ([4]; organic solvent or mixture, IPAc): < 2400 µg/mL
- solubility ([4]; organic solvent or mixture, MIBK): 1900 to 3800 µg/mL (≈ 4.05 to 8.11 mM)
- solubility ([4]; organic solvent or mixture, MeOH): 2400 to 4800 µg/mL (≈ 5.12 to 10.2 mM)
- solubility ([4]; organic solvent or mixture, THF): 3600 to 6000 µg/mL (≈ 7.68 to 12.8 mM)
- solubility ([4]; organic solvent or mixture, Toluene): 2000 to 4000 µg/mL (≈ 4.27 to 8.54 mM)
- solubility ([4]; organic solvent or mixture, n-Heptane): < 2100 µg/mL
- solubility ([4]; water, H2O): < 1900 µg/mL
- FC: form change based on XRPD results [3]: No
- Purity vs. Initial (%) [3]: 100.0%
- Purity (area %) [3]: 99.18 area %
Compound: COc1cc(Nc2nccc(Nc3cccnc3-c3ccccn3)n2)ccc1N1CCN(C)CC1 [Freebase Form A, N^4-(2,2′-bipyridin-3-yl)-N^2-(3-methoxy-4-(4-methylpiperazin-1-yl)phenyl)pyrimidine-2,4-diamine]
- Solid-state Stability [3]: Good physicochemical properties under 40° C./75%
